Source: paper PMC6753139, “TRIM66 reads unmodified H3R2K4 and H3K56ac to respond to DNA damage in embryonic stem cells” (Nature Communications, 2019)

Biological target: T1, TRIM66-WT965-1160 (Homo sapiens, UniProt O15016)
T1 construct: ITC titration: titrating TRIM66-WT965-1160 with various histone H3 peptides; GST (N, cleaved yes); made in house; host or cells: Escherichia coli BL21 (DE3)
T1 sequence (O15016 1100-1295): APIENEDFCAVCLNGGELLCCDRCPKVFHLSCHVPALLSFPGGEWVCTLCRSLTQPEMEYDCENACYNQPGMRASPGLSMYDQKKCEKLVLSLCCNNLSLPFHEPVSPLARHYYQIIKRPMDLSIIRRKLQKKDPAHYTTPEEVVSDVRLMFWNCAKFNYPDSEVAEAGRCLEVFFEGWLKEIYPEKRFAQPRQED
Experiment: ITC, PHD-Bromodomain wild type
Assay type: binding
Conditions: ITC, MicroCal PEAQ-ITC, 25 °C, 20 mM Tris, 100 mM NaCl, pH 7.5; single measurement, error from curve fit; Weak binding = ITC curves cannot be fitted reliably; N.D. = no detectable binding
From the text: We next performed the glutathione S-transferase (GST) pulldown assays of the TRIM66-WT965-1160 against the calf thymus histones to verify the histone-binding ability of TRIM66 PHD-Bromodomain. […] The PHD of TRIM66 shared a low conservation with those of ING4, PHF2, and BPTF, and lacked the conserved aromatic residues, which were necessary for binding H3K4me2/3[40]–[42] (Supplementary Fig. 2b). Nevertheless, TRIM66 was highly conserved in sequence and structure with the PHDs of TRIM24 and TRIM33 (Fig. 1c and Supplementary Fig. 2b), which were reported to bind H3K4me0[5],[6]; thus, we speculated that the PHD of TRIM66 could bind H3K4me0. To verify this hypothesis, we performed isothermal titration calorimetry (ITC)-based binding assays. […] Based on previous researches reporting the acetyl-lysine binding partners of Bromodomain[3]–[12], we chose a series of related peptides derived from H3 and H4, to test their interactions with TRIM66-WT965-1160 by ITC experiments. […] We further found the acetylated state of K56 was necessary for this binding (Supplementary Fig. 3b).
We next titrated the TRIM66-WT965-1160 with a series of R2-methylated H3 peptides through ITC assays. […] This finding was consistent with the structural observation that each NηH atom of the R2 formed a hydrogen bond with residues in protein (Fig. 2d).
The DNA fragments of human TRIM66_968-1160, TRIM24_824-1006, and TRIM33_882-1087 were amplified from a human bone marrow cDNA library using a PCR-based cloning strategy. The fragments of TRIM66-WT968-1160 were inserted into a pGEX-4T-1 plasmid (GE Healthcare). The fragments of TRIM24_824-1006 and TRIM33_882-1087 were ligated into a pET-SUMO-28a (+) plasmid (Novagen). The DNA fragments of TRIM66-MUT968-1160 and TRIM66-WT965-1160 with codon optimization were synthesized by General Biosystems (sequence was shown in Supplementary Methods) and inserted into a pGEXT-4T-1 plasmid (GE Healthcare). Mutants of TRIM66 PHD-Bromo were generated through PCR using the Mutant Best kit (Takara). The mutation of point mutant based on the codon-optimized DNA sequence of TRIM66-WT965-1160. All constructs were expressed in Escherichia coli BL21 (DE3). The construct of ASF1a1-156 inserted into a pRSFDuet plasmid (courtesy of Ruiming Xu Lab, Institute of Biophysics, Chinese Academy of Sciences) was expressed in E. coli BL21 (DE3) RIL. The construct of full-length H4 inserted into a pET3a plasmid was expressed in E. coli BL21 (DE3). The expression of full-length histone H3K56ac was performed in BL21 (DE3) cells transformed with pBK-AxcKRS3 and pET22b encoding H3 with amber codons at the K56 site[12]. The DNA fragment of full-length TRIM66 was synthesized by General Biosystems and ligated into fugw vector (Addgene). See the information of protein sequence in Supplementary Table 1.
The calorimetric experiments were performed at 25 °C using a MicroCal PEAQ-ITC. The proteins were dialyzed using a buffer containing 20 mM Tris and 100 mM NaCl at pH 7.5. Lyophilized peptides were dissolved in the same buffer and adjusted to pH 7.5 prior to use. Peptide concentrations were estimated from the quantitative NMR experiments[73],[74]. ITC measurements were performed via injection of 0.7–4 mM peptide into a cell containing 0.12 mM TRIM24-PHD-Bromo, 0.05 mM TRIM33 PHD-Bromo, and 0.05 or 0.11–0.15 mM TRIM66-PHD-Bromo (or its mutants). The ITC data were subsequently analyzed using the MicroCal PEAQ-ITC analysis software.

C[C@H](N)C(=O)N[C@@H](CCCNC(=N)N)C(=O)N[C@H](C(=O)N[C@@H](CCCCN)C(=O)N[C@@H](CCC(N)=O)C(=O)N[C@H](C(=O)N[C@@H](C)C(=O)N[C@@H](CCCNC(=N)N)C(=O)N[C@@H](CCCCN)C(=O)N[C@@H](CO)C(=O)N[C@H](C(=O)NCC(=O)O)[C@@H](C)O)[C@@H](C)O)[C@@H](C)O [H3_1-12]
Kd: 15.7 ± 0.64 µM
